# Experimental data published in patent US20120009280A1, “METHOD OF REDUCING THE RATE OF DEGRADATION OF A BIOLOGICAL MATERIAL” (Bio-Energy Ingredients Limited, priority 2009, published 2012).
# What was measured:
# yeast = assay: Yeast count of spent brewer's / wet distiller's grains stored at ambient temperature; format: cell-based
# Experimental: (§1) Samples of Portion 1 (“AR”), Portion 3 (“SO”) and Portion 5 (“SH”) were then delivered to a microbiological testing facility about 15 kilometres from the treatment laboratory. Each was tested for initial total microbial, yeast and mould counts, respectively.
# (§2) Separate untreated samples were similarly stored under insect-proof screens at ambient temperature for seven days (as shown in Tables 1 and 2). During the trial period the ambient temperature ranged from 11 to 33 degrees C.
# (§3) The free moisture content on the initial spent brewer's grains was determined to be 78.1% m/m. After exposure to the environment for seven days, all of the samples were tested at a South African National Accreditation System (SANAS) approved microbiological testing facility. Each was tested for total micro-organism, yeast and mould counts to determine the affect of the various treatments. A similar procedure to that described in K. A. Rosentrater et al, Food Bioprocess Technol (2008) was used for the microbiological evaluation.
# (§4) At the laboratory, the samples were thoroughly mixed and initially split into a first portion (Portion 1) and a second portion (Portion 2). Portion 1 was left untreated. A sample of Portion 1, was delivered immediately to a microbiological testing facility about 15 kilometres away from the treatment laboratory and was tested for initial total microbial, yeast and mould counts, respectively. No water removal prior to treatment was done in this experiment as was the case in Example 8 wherein a similar wet material was partially dewatered by pressing and the residue treated with 10% (w/w/) calcium oxide.
# (§5) Samples from Portion 2 were subjected to treatment with varying amounts of a powdered, commercially-available calcium oxide containing approximately 94% calcium oxide (CaO) as shown in Table 32. The treatments varied from 2.5 to 10% (w/w) calcium oxide addition. The samples were stored in batches (according to the calcium oxide treatment) under insect-proof screens at ambient temperature for fifty six days. Separate untreated samples were similarly stored under insect-proof screens at ambient temperature for a total of 56 days. During the trial period the ambient temperature ranged from 10 to 30 degrees C. As this period was the southern hemisphere spring/early summer, the humidity as well as ambient temperatures varied widely.
# (§6) The free moisture content on the initial spent brewer's grains was determined to be 79.4% m/m. After exposure to the environment for seven days, all of the samples were tested at a South African National Accreditation System (SANAS) approved microbiological testing facility. Each was tested for total micro-organism, yeast and mould counts to determine the affect of the various treatments. A similar procedure to that described in K. A. Rosentrater et al, Food Bioprocess Technol (2008) was used for the microbiological evaluation.
# (§7) Samples from each treatment were drawn every seven days. No further calcium oxide treatment or agitation took place after the initial mix. In each case the entire sample was isolated and delivered to the microbiological testing facility.
# (§8) The calcium oxide treatment trial described in Example 9 wherein wet distiller's grains were treated with 2.5%, 5% and 10.0% calcium oxide, respectively, versus untreated material was repeated using lower doses of calcium oxide. In this trial the same source of wet distiller's grains (again with now partial water removal prior to treatment) was treated. Also, the same protocol as described in Example 9 was applied, but at lower doses of calcium oxide i.e. 0.5%, 1.0%, 1.5%, 2.0% and 2.5%, respectively, versus untreated material.
# (§9) In this trial the same source of wet distiller's grains (again with now partial water removal prior to treatment) was treated. Also, the same protocol as described in Example 9 was applied.
# mould = assay: Mould count of spent brewer's / wet distiller's grains stored at ambient temperature; format: cell-based
# Experimental: as §1, §2, §3, §4
# as §5, with “The treatments varied from 2.5 to 10% (w/w) calcium oxide addition.” left out
# as §6, §7, §8, §9
# [1] = wet distiller's grains, 0.5% CaO (w/w), day 2
# [2] = wet distiller's grains, 1.0% CaO (w/w), day 1
# [3] = wet distiller's grains, 1.5% CaO (w/w), day 10
# [4] = wet distiller's grains, 2.0% CaO (w/w), day 2
# [5] = wet distiller's grains, 2.5% CaO (w/w), day 14
# [6] = wet distiller's grains, 5.0% CaO (w/w), day 21
# [7] = wet distiller's grains, 10.0% CaO (w/w), day 14
smiles,measurement,setting,value
[O]=[Ca] [calcium oxide],Yeast Count,"yeast; 5% CaO (w/w) powder, week 4",10 cfu/gram
same,Yeast Count,yeast; [1],<10 cfu/gram
same,Yeast Count,yeast; [2],<10 cfu/gram
same,Yeast Count,yeast; [3],<10 cfu/gram
same,Yeast Count,yeast; [4],<10 cfu/gram
same,Yeast Count,yeast; [5],"52,000 cfu/gram"
same,Yeast Count,yeast; [6],10 cfu/gram
same,Yeast Count,yeast; [7],120 cfu/gram
same,Mould Count,"mould; 5% CaO (w/w) powder, week 1",10 cfu/gram
same,Mould Count,"mould; 5% CaO (w/w) powder, week 2",10 cfu/gram
same,Mould Count,"mould; 5% CaO (w/w) powder, week 3",10 cfu/gram
same,Mould Count,"mould; 5% CaO (w/w) powder, week 4",10 cfu/gram
same,Mould Count,"mould; 5% CaO (w/w) powder, week 5",10 cfu/gram
same,Mould Count,"mould; wet distiller's grains, 0.5% CaO (w/w), day 1",<10 cfu/gram
same,Mould Count,mould; [1],30 cfu/gram
same,Mould Count,"mould; wet distiller's grains, 0.5% CaO (w/w), day 3",100 cfu/gram
same,Mould Count,"mould; wet distiller's grains, 0.5% CaO (w/w), day 6",37000 cfu/gram
same,Mould Count,"mould; wet distiller's grains, 0.5% CaO (w/w), day 8",<10 cfu/gram
same,Mould Count,mould; [2],<10 cfu/gram
same,Mould Count,"mould; wet distiller's grains, 1.0% CaO (w/w), day 2",<10 cfu/gram
same,Mould Count,"mould; wet distiller's grains, 1.0% CaO (w/w), day 3",<10 cfu/gram
same,Mould Count,"mould; wet distiller's grains, 1.0% CaO (w/w), day 6",<10 cfu/gram
same,Mould Count,"mould; wet distiller's grains, 1.0% CaO (w/w), day 8",<10 cfu/gram
same,Mould Count,"mould; wet distiller's grains, 1.0% CaO (w/w), day 10",91000 cfu/gram
same,Mould Count,"mould; wet distiller's grains, 1.5% CaO (w/w), day 1",<10 cfu/gram
same,Mould Count,"mould; wet distiller's grains, 1.5% CaO (w/w), day 2",<10 cfu/gram
same,Mould Count,"mould; wet distiller's grains, 1.5% CaO (w/w), day 3",<10 cfu/gram
same,Mould Count,"mould; wet distiller's grains, 1.5% CaO (w/w), day 6",<10 cfu/gram
same,Mould Count,"mould; wet distiller's grains, 1.5% CaO (w/w), day 8",<10 cfu/gram
same,Mould Count,mould; [3],<110 cfu/gram
same,Mould Count,"mould; wet distiller's grains, 2.0% CaO (w/w), day 1",<10 cfu/gram
same,Mould Count,mould; [4],<10 cfu/gram
same,Mould Count,"mould; wet distiller's grains, 2.0% CaO (w/w), day 3",<10 cfu/gram
same,Mould Count,"mould; wet distiller's grains, 2.0% CaO (w/w), day 6",<10 cfu/gram
same,Mould Count,"mould; wet distiller's grains, 2.0% CaO (w/w), day 8",<10 cfu/gram
same,Mould Count,"mould; wet distiller's grains, 2.0% CaO (w/w), day 10",<10 cfu/gram
same,Mould Count,"mould; wet distiller's grains, 2.5% CaO (w/w), day 1",<10 cfu/gram
same,Mould Count,"mould; wet distiller's grains, 2.5% CaO (w/w), day 2",<10 cfu/gram
same,Mould Count,"mould; wet distiller's grains, 2.5% CaO (w/w), day 3",<10 cfu/gram
same,Mould Count,"mould; wet distiller's grains, 2.5% CaO (w/w), day 6",<10 cfu/gram
same,Mould Count,"mould; wet distiller's grains, 2.5% CaO (w/w), day 7",10 cfu/gram
same,Mould Count,"mould; wet distiller's grains, 2.5% CaO (w/w), day 8",<10 cfu/gram
same,Mould Count,"mould; wet distiller's grains, 2.5% CaO (w/w), day 10",<10 cfu/gram
same,Mould Count,mould; [5],"14,000 cfu/gram"
same,Mould Count,"mould; wet distiller's grains, 2.5% CaO (w/w), day 21","170,000 cfu/gram"
same,Mould Count,"mould; wet distiller's grains, 2.5% CaO (w/w), day 42","850,000 cfu/gram"
same,Mould Count,"mould; wet distiller's grains, 2.5% CaO (w/w), day 49","320,000 cfu/gram"
same,Mould Count,"mould; wet distiller's grains, 2.5% CaO (w/w), day 56","1,240,000 cfu/gram"
same,Mould Count,"mould; wet distiller's grains, 5.0% CaO (w/w), day 7",10 cfu/gram
same,Mould Count,"mould; wet distiller's grains, 5.0% CaO (w/w), day 14",10 cfu/gram
same,Mould Count,mould; [6],150 cfu/gram
same,Mould Count,"mould; wet distiller's grains, 5.0% CaO (w/w), day 42",20 cfu/gram
same,Mould Count,"mould; wet distiller's grains, 5.0% CaO (w/w), day 49",90 cfu/gram
same,Mould Count,"mould; wet distiller's grains, 5.0% CaO (w/w), day 56",90 cfu/gram
same,Mould Count,"mould; wet distiller's grains, 10.0% CaO (w/w), day 7",10 cfu/gram
same,Mould Count,mould; [7],10 cfu/gram
same,Mould Count,"mould; wet distiller's grains, 10.0% CaO (w/w), day 21",10 cfu/gram
same,Mould Count,"mould; wet distiller's grains, 10.0% CaO (w/w), day 42",70 cfu/gram
same,Mould Count,"mould; wet distiller's grains, 10.0% CaO (w/w), day 49",80 cfu/gram
same,Mould Count,"mould; wet distiller's grains, 10.0% CaO (w/w), day 56",16 cfu/gram
